Consider 16 molecules from publication PMC3944524, “Antimicrobial Activity of the Marine Alkaloids, Clathrodin and Oroidin, and Their Synthetic Analogues” (Marine Drugs, 2014).

Data set [1] has as its system Enterococcus faecalis (ATCC 29212). Nature of the data set: Broth microdilution antimicrobial assay, Enterococcus faecalis. It is filed as cell-based. Conditions: for SI (selectivity index): E. faecalis MIC50 vs Huh-7 cytotoxicity IC50; for MIC90 / MIC50: Enterococcus faecalis; for MIC90: ATCC29212, 24 h; for MIC50: ATCC29212, E. faecalis ATCC 29212, 24 h, sigmoidal curve fitting. Here is the method: (§1) Clinical control strains of Enterococcus faecalis (Gram-positive, ATCC 29212), Staphylococcus aureus (Gram-positive, ATCC 25923), Escherichia coli (Gram-negative, ATCC 25922) and a fungal strain, Candida albicans (ATCC 90028), were obtained from Microbiologics Inc. (St. Cloud, MN, USA) and used for the antimicrobial screening. Bacterial strains were grown on Mueller Hinton II agar (MHA, Becton Dickinson, Franklin Lakes, NJ, USA) […] Mueller Hinton II broth (MHB, Becton Dickinson, Franklin Lakes, NJ, USA) and the Candida strain on Sabouraud dextrose agar (SDA, Becton Dickinson, Franklin Lakes, NJ, USA) plates. Media were prepared in MilliQ water, according to the manufacturer's instructions, and autoclaved at 121 °C for 15 min. […] The Candida strain was grown on SDA plates at 28 °C for 18-24 h and suspended into sterile 0.9% saline for the assay. Antimicrobial assays were performed by the broth microdilution method following the guidelines of the Clinical and Laboratory Standards Institute (CLSI) and European Committee on Antimicrobial Susceptibility Testing (EUCAST). […] The Candida suspension was prepared in sterile 0.9% saline solution, and the suspension was diluted in RPMI-1640 media (with L-glutamine, without NaHCO3 and supplemented with 2% glucose and 0.165 M MOPS, buffered to pH 7; Lonza, Basel, Switzerland) to yield a final inoculum of 2.5 × 10^3 CFU/mL in the assay. Assays were carried out in clear 96-well microtiter plates and initiated by dispensing an equal volume of microbial suspension and sample solution diluted into the assay medium. The plates were incubated for 24 h at 37 °C (for Candida, the incubation was at 28 °C for 48 h) with agitation. […] The antimicrobial activity of the samples was calculated from the absorbance values by comparing to untreated controls and expressed as the percentage inhibition of growth. Reference antibiotics were used as positive controls on every assay plate (see Figure 2 for details). […] MIC50 values were determined from the dose-response results by sigmoidal curve fitting with Origin software (OriginLab, Corp., Wellesley Hills, MA, USA).
For orientation: In broth dilution the organism is exposed to a series of concentrations in liquid medium.

For data set [2], the system named is Staphylococcus aureus (ATCC 25923). Nature of the data set: Broth microdilution antimicrobial assay, Staphylococcus aureus. The settings on record: for SI (selectivity index): S. aureus MIC50 vs Huh-7 cytotoxicity IC50; for MIC90 / MIC50: Staphylococcus aureus; for MIC90: ATCC25923, 24 h; for MIC50: ATCC25923, S. aureus ATCC 25923, 24 h, sigmoidal curve fitting. It is filed as cell-based. Here is the method:
as §1

Data set [3] is described as follows: Mammalian cell cytotoxicity, ATP assay (CellTiter-Glo). It is filed as cell-based, human. The settings on record: human, Huh-7 cells, ATP assay, 24 h exposure, average of two dose-response experiments. Here is the method: Huh-7 cells (originating from human hepatocellular carcinoma) were kindly provided by Prof. Ralf Bartenschlager (University of Heidelberg, Heidelberg, Germany). […] The cells were incubated at 37 °C in a humidified atmosphere with 5% CO2. The effect of the most promising compounds on the metabolic activity of Huh-7 hepatocytes was assessed by intracellular ATP quantitation (Promega’s CellTiter-Glo Cell Viability Assay, Madison, WI, USA). In brief, cells were seeded at 20,000 cells/well on white-walled 96-well microplates (ViewPlate, PerkinElmer Inc., Wellesley, MA, USA) and incubated at 37 °C, 5% CO2 and 95% humidity overnight and then exposed to the compounds for 24 h. Following the exposure, cells were washed with 100 µL PBS, and 50 µL of fresh assay media and 50 µL of the CellTiter-Glo reagent were added into the wells. After 2 min of shaking and 10 min incubation at rt, luminometric signal was measured using a Varioskan Flash plate reader (Thermo Fisher Scientific, Vantaa, Finland). […] The IC50 values were calculated by fitting the data into sigmoidal dose-response curves with the Origin software.

In brackets after ≈: the same amount, converted by molar mass.

As for `CNc1nc(-c2cccc(NC(=O)c3cc4ccccc4[nH]3)c2)c[nH]1` [Compound 6l], in data set [1], the “SI (selectivity index)” value amounted to 1.0; the MIC90 (commonly the lowest concentration that inhibits either 90% of growth or 90% of the strains tested, depending on the study) is 100 µM (≈ 33.1 µg/mL); the MIC50 (in general, an inhibitory concentration at the 50% level, which refers to growth in some studies and to a panel of isolates in others) was 54.2 µM (≈ 18 µg/mL). In data set [2], the “SI (selectivity index)” value worked out at 4.9, the MIC90 worked out at 75 µM (≈ 24.9 µg/mL) and the MIC50 amounted to 10.8 µM (≈ 3.58 µg/mL). Besides, in data set [3], inhibition was half-maximal at 52.3 µM (IC50 at 24 h).
Take `Nc1nc(-c2cccc(NC(=O)c3ccc[nH]3)c2)cn1Cc1ccccc1` [Compound 15, N-(3-(2-Amino-1-benzyl-1H-imidazol-4-yl)phenyl)-1H-pyrrole-2-carboxamide]: the melting point (commonly the temperature, or range, at which the solid turns liquid) fell in the range of 229 to 232 °C.
On the same count and under the same terms, next, `Cl.Nc1nc(-c2cccc(NC(=O)c3cc4cc(OC(F)(F)F)ccc4[nH]3)c2)c[nH]1` [Compound 6g, 2-Amino-4-(3-(5-(trifluoromethoxy)-1H-indole-2-carboxamido)phenyl)-1H-imidazol-3-ium chloride]: 255 to 260 °C; `CC(C)(C)OC(=O)n1cc(-c2cccc(NC(=O)c3cc4sccc4[nH]3)c2)nc1N` [Compound 5k, tert-Butyl 4-(3-(4H-thieno[3,2-b]pyrrole-5-carboxamido)phenyl)-2-amino-1H-imidazole-1-carboxylate]: 178 to 180 °C.
For the molecule `Nc1nc(-c2cccc(NC(=O)c3cc4ccccc4[nH]3)c2)c[nH]1` [Compound 6d], in data set [1], the “SI (selectivity index)” value turned out to be 1.2, the MIC90 was found to be 50 µM (≈ 15.9 µg/mL) and the MIC50 stood at 34 µM (≈ 10.8 µg/mL). Moreover, in data set [2], the “SI (selectivity index)” value is on record as 1.4, the MIC90 came to 50 µM (≈ 15.9 µg/mL) and the MIC50 came out at 29.4 µM (≈ 9.33 µg/mL). Further, the IC50 – broadly, the point on the concentration scale where inhibition reaches its midpoint – at 24 h in data set [3] is 42.3 µM.
`Cl.Nc1nc(-c2cccc(NC(=O)c3cc4sccc4[nH]3)c2)c[nH]1` [Compound 6k, 4-(3-(4H-Thieno[3,2-b]pyrrole-5-carboxamido)phenyl)-2-amino-1H-imidazol-3-ium chloride] displayed a melting point of 198 to 202 °C. Also, in data set [2], the “SI (selectivity index)” value was found to be 2.0, the MIC90 was 100 µM and the MIC50 was 27.1 µM. In data set [3], the concentration for half-maximal inhibition (IC50) at 24 h worked out at 53.6 µM.
`CC(C)(C)OC(=O)n1cc(-c2cccc(NC(=O)c3cc4cc(F)ccc4[nH]3)c2)nc1N` [Compound 5j, tert-Butyl 2-amino-4-(3-(5-fluoro-1H-indole-2-carboxamido)phenyl)-1H-imidazole-1-carboxylate] yielded a melting point of 189 to 192 °C.
Take `Cl.Nc1nc(-c2cccc(NC(=O)c3cc4cc(Cl)ccc4[nH]3)c2)c[nH]1` [Compound 6i, 2-Amino-4-(3-(5-chloro-1H-indole-2-carboxamido)phenyl)-1H-imidazol-3-ium chloride]: the melting point lay in the range of 201 to 204 °C. In addition, in data set [2], the “SI (selectivity index)” value came to 3.0, the MIC90 was 50 µM and the MIC50 came to 7.2 µM. The same molecule came in with an IC50 at 24 h in data set [3] of 21.7 µM.
Molecule `Cl.Nc1nc(-c2cccc(NC(=O)c3cc4cc(F)ccc4[nH]3)c2)c[nH]1` [Compound 6j, 2-Amino-4-(3-(5-fluoro-1H-indole-2-carboxamido)phenyl)-1H-imidazol-3-ium chloride] gave a melting point of 202 to 205 °C. In data set [1], the “SI (selectivity index)” value is reported as 0.7, the MIC90 came to 100 µM and the MIC50 is 27.3 µM. In data set [2], the “SI (selectivity index)” value was 0.9, the MIC90 was found to be 50 µM and the MIC50 is 22.1 µM. Moreover, the IC50 at 24 h in data set [3] came to 19.8 µM.
The molecule `CC(C)(C)OC(=O)n1cc(-c2cccc(NC(=O)c3cc4cc(OCc5ccccc5)ccc4[nH]3)c2)nc1N` [Compound 5h, tert-Butyl 2-amino-4-(3-(5-(benzyloxy)-1H-indole-2-carboxamido)phenyl)-1H-imidazole-1-carboxylate] yielded a melting point of 140 to 143 °C.
The molecule `COc1ccc2[nH]c(C(=O)Nc3cccc(-c4c[nH]c(N)n4)c3)cc2c1.Cl` [Compound 6f, 2-Amino-4-(3-(5-methoxy-1H-indole-2-carboxamido)phenyl)-1H-imidazol-3-ium chloride] gave a melting point of 237 to 241 °C. Further, in data set [2], the “SI (selectivity index)” value is 2.7, the MIC90 turned out to be 50 µM and the MIC50 worked out at 11.9 µM. This molecule showed an IC50 at 24 h in data set [3] of 32.2 µM.
In the case of `COc1ccc2[nH]c(C(=O)Nc3cccc(-c4cn(C(=O)OC(C)(C)C)c(N)n4)c3)cc2c1` [Compound 5f, tert-Butyl 2-amino-4-(3-(5-methoxy-1H-indole-2-carboxamido)phenyl)-1H-imidazole-1-carboxylate], the melting point is 173 to 177 °C.
For `CC(C)(C)OC(=O)n1cc(-c2cccc(NC(=O)c3cc4cc(O)ccc4[nH]3)c2)nc1N` [Compound 7, tert-Butyl 2-Amino-4-(3-(5-hydroxy-1H-indole-2-carboxamido)phenyl)-1H-imidazole-1-carboxylate], the melting point lay within 192 to 196 °C. In data set [2], the MIC90 stood at 100 µM (≈ 43.3 µg/mL) and the MIC50 came to 11.6 µM (≈ 5.03 µg/mL). This molecule returned an IC50 at 24 h in data set [3] of 94 µM.
The molecule `CC(C)(C)OC(=O)n1cc(-c2cccc(NC(=O)c3cc4cc(OC(F)(F)F)ccc4[nH]3)c2)nc1N` [Compound 5g, tert-Butyl 2-amino-4-(3-(5-(trifluoromethoxy)-1H-indole-2-carboxamido)phenyl)-1H-imidazole-1-carboxylate] had a melting point of 185 to 187 °C.
Same read-out and setting: next, `Nc1nc(-c2cccc(NCc3ccc[nH]3)c2)cn1Cc1ccccc1` [Compound 16, 4-(3-(((1H-Pyrrol-2-yl)methyl)amino)phenyl)-1-benzyl-1H-imidazol-2-amine]: 165 to 168 °C.
Regarding `Cl.Nc1nc(-c2cccc(NC(=O)c3cc4cc(O)ccc4[nH]3)c2)c[nH]1` [Compound 8, 2-Amino-4-(3-(5-hydroxy-1H-indole-2-carboxamido)phenyl)-1H-imidazol-3-ium chloride], the melting point fell in the range of 248 to 252 °C. Moreover, in data set [2], the “SI (selectivity index)” value is reported as greater than 2.5, the MIC90 was determined as 100 µM and the MIC50 was found to be 40.5 µM. The same molecule showed an IC50 at 24 h in data set [3] greater than 100 µM.
